IC50 data for 2 compounds are collected here from ChEMBL document CHEMBL1201862, “PubChem BioAssay data set” (2004).

Calls of active or inactive are those of the source. Rule as the data show it: actives have a measured IC50 and inactives only a lower limit.

The target of this assay is Envelope glycoprotein gp160 (Human immunodeficiency virus 1, UniProt Q6QLK5). Put plainly: cell-free HIV fusion peptide-binding blockers – biochemical, uHTS, fluorescence dequenching, […] (AID 1986).
Chain of Envelope glycoprotein gp160 (Q6QLK5 whole entry, the tested form may be a part): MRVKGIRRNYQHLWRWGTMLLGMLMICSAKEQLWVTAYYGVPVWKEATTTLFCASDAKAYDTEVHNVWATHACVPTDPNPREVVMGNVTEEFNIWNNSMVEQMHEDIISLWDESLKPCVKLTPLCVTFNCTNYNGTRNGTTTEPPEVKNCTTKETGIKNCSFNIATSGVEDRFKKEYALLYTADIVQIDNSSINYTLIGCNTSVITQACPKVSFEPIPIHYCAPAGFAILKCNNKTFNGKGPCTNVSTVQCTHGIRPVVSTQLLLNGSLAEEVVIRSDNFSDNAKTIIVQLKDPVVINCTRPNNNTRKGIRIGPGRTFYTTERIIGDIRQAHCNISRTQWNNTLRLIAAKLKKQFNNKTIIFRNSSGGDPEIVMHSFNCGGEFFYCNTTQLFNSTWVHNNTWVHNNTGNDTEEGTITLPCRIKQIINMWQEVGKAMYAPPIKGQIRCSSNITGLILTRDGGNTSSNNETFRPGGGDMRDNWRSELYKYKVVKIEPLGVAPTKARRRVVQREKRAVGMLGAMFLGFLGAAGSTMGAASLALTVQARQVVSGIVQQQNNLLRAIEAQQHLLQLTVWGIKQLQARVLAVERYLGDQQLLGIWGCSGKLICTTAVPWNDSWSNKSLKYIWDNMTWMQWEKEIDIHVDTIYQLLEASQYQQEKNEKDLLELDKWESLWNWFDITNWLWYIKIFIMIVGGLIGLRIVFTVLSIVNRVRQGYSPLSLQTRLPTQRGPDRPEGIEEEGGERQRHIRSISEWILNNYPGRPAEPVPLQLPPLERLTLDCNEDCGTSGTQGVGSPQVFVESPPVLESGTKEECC

For `O=C(O)c1ccccc1-c1ccccc1C(=O)Nc1ccc(-c2nc3cc(Cl)ccc3o2)cc1`, the half-maximal inhibitory concentration (IC50) (as a rule, the concentration that gives 50% inhibition) is 24.4 µM (active). The result for `COc1cc(/C=C2\C(=N)N3N=C(S(C)(=O)=O)SC3=NC2=O)ccc1OC(=O)c1cccs1` reads 12.1 µM (active).
